Measured values taken from patent US8017612B2, “Piperazine compound and use thereof as a HCV polymerase inhibitor” (priority 2006, dated 2011).
pIC50: −log10 of the molar value.

Columns and labels:
[1] = target: T1, HCV polymerase (NS5B) type 1b (Hepatitis C virus genotype 1b, UniProt P26663); assay: Assay of enzyme (HCV polymerase) inhibitory activity, type 1b enzyme; format: biochemical, HCV BK strain (type 1b); settings: HCV polymerase inhibitory activity IC50, 1b, type 1b enzyme
T1 construct: a region encoding NS5B (J Virol 1991 March, 65(3), 1105-13, 544 amino acids after deletion of 47 amino acids on the C-terminal); 6xHis (C); made in house; host or cells: Escherichia coli
Procedure, shortened: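 Polymerase activity was followed as radiolabelled UTP incorporation by E. coli-expressed, His-tagged NS5B of HCV type 1b lacking its last 47 residues. Conditions: 2 μM UTP, 50 μM other NTPs, Mg2+ buffer at pH 7.5, 25 °C for 60 min. Inhibition relative to compound-free reactions gave IC50.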

[2] = target: T2, HCV polymerase (NS5B) type 1a (Hepatitis C virus genotype 1a, UniProt P26664); assay: Assay of enzyme (HCV polymerase) inhibitory activity, type 1a enzyme; format: biochemical, HCV type 1a (cloned from the blood of patients); settings: HCV polymerase inhibitory activity IC50, 1a, type 1a enzyme
T2 construct: made in house; host or cells: Escherichia coli (by the 'similar method' of the 1b enzyme)
Procedure, shortened: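 IC50 values derive from radioactivity of newly synthesized RNA with versus without test compound. The enzyme was C-terminally truncated type 1a NS5B, 1.5 μg/ml, run 60 min at 25° C with 3H-UTP-labelled nucleotides.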

Compound	pIC50 [1]	pIC50 [2]
O=C(NCc1ccc(OC(F)(F)F)cc1)[C@H]1CN(c2nc3ccc(=O)[nH]c3s2)CCN1S(=O)(=O)c1ccc(C(F)(F)F)cc1 [Example 1086, (R)-4-(5-oxo-4,5-dihydro-thiazolo[5,4-b]pyridin-2-yl)-1-(4-trifluoromethyl-benzenesulfonyl)-piperazine-2-carboxylic acid 4-trifluoromethoxy-benzylamide]	> 7.00	> 7.00
O=C(NCc1ccc(OC(F)(F)F)cc1)[C@H]1CN(c2nc3nc(OC(F)F)ncc3s2)CCN1S(=O)(=O)c1ccc(OC(F)(F)F)cc1 [Example 1087, (R)-4-(5-difluoromethoxy-thiazolo[4,5-d]pyrimidin-2-yl)-1-(4-trifluoromethoxy-benzenesulfonyl)-piperazine-2-carboxylic acid 4-trifluoromethoxy-benzylamide]	> 7.00	> 7.00
CC(C)c1cc(=O)nc2sc(N3CCN(S(=O)(=O)c4ccc(OC(F)(F)F)cc4)[C@@H](C(=O)NCc4ccc(OC(F)(F)F)cc4)C3)nn12 [Example 1088, (R)-4-(5-isopropyl-7-oxo-7H-[1,3,4]thiadiazolo[3,2-a]pyrimidin-2-yl)-1-(4-trifluoromethoxy-benzenesulfonyl)-piperazine-2-carboxylic acid 4-trifluoromethoxy-benzylamide]	> 7.00	> 7.00
CC(C)c1cc(=O)nc2sc(N3CCN(S(=O)(=O)c4ccc(OC(F)(F)F)cc4)[C@@H](C(=O)NCc4ccc(OC(F)F)cc4)C3)nn12 [Example 1089, (R)-4-(5-isopropyl-7-oxo-7H-[1,3,4]thiadiazolo[3,2-a]pyrimidin-2-yl)-1-(4-trifluoromethoxy-benzenesulfonyl)-piperazine-2-carboxylic acid 4-difluoromethoxy-benzylamide]	> 7.00	> 7.00
Nc1nc(C2CC2)nc2nc(N3CCN(S(=O)(=O)c4ccc(OC(F)(F)F)cc4)[C@@H](C(=O)NCc4ccc(OC(F)(F)F)cc4)C3)sc12 [Example 1090, (R)-4-(7-amino-5-cyclopropyl-thiazolo[4,5-d]pyrimidin-2-yl)-1-(4-trifluoromethoxy-benzenesulfonyl)-piperazine-2-carboxylic acid 4-trifluoromethoxy-benzylamide]	> 7.00	> 7.00
CC(C)(O)c1nc(N)c2sc(N3CCN(S(=O)(=O)c4ccc(OC(F)(F)F)cc4)[C@@H](C(=O)NCc4ccc(OC(F)(F)F)cc4)C3)nc2n1 [Example 1091, (R)-4-[7-amino-5-(1-hydroxy-1-methyl-ethyl)-thiazolo[4,5-d]pyrimidin-2-yl]-1-(4-trifluoromethoxy-benzenesulfonyl)-piperazine-2-carboxylic acid 4-trifluoromethoxy-benzylamide]	> 7.00	> 7.00
CCCc1ccc(CNC(=O)[C@H]2CN(c3nc(C)c(C(O)C(=O)O)s3)CCN2S(=O)(=O)c2ccc(OC(F)(F)F)cc2)cc1 (stereo partly drawn) [Example 1092, hydroxy-{4-methyl-2-[(R)-3-(4-propyl-benzylcarbamoyl)-4-(4-trifluoromethoxy-benzenesulfonyl)-piperazin-1-yl]-thiazol-5-yl}-acetic acid]	> 7.00	6.00 to 7.00
CCN(C)c1ccc(CNC(=O)[C@H]2CN(c3nc(Cl)c(C(=O)O)s3)CCN2S(=O)(=O)c2ccc(OC(F)(F)F)cc2)cc1 [Example 1093, 4-chloro-2-[(R)-3-[4-(ethyl-methyl-amino)-benzylcarbamoyl]-4-(4-trifluoromethoxy-benzenesulfonyl)-piperazin-1-yl]-thiazole-5-carboxylic acid]	> 7.00	> 7.00
CCCc1ccc(CNC(=O)[C@H]2CN(c3cc(C)n(CC(=O)O)n3)CCN2S(=O)(=O)c2ccc(OC(F)(F)F)cc2)cc1 [Example 1094, {5-methyl-3-[(R)-3-(4-propyl-benzylcarbamoyl)-4-(4-trifluoromethoxy-benzenesulfonyl)-piperazin-1-yl]-pyrazol-1-yl}-acetic acid]	6.00 to 7.00	6.00 to 7.00
CC[N+](CC)(CC)Cc1cnc(N2CCN(S(=O)(=O)c3ccc(OC(F)(F)F)cc3)[C@@H](C(=O)NCc3ccc(C(C)(C)C)cc3)C2)cn1 [Example 1095, [(R)-3-(4-tert-butyl-benzylcarbamoyl)-4-(4-trifluoromethoxy-benzenesulfonyl)-3,4,5,6-tetrahydro-2H-[1,2′]bipyrazinyl-5′-ylmethyl]-triethyl-ammonium trifluoro-methanesulfonate]	6.00 to 7.00	6.00 to 7.00
CCC(F)(F)c1ccc(CNC(=O)[C@H]2CN(C(=O)Cn3nnc(N)n3)CCN2S(=O)(=O)c2ccc(OC(F)(F)F)cc2)cc1 [Example 1096, (R)-4-[2-(5-amino-tetrazol-2-yl)-acetyl]-1-(4-trifluoromethoxy-benzenesulfonyl)-piperazine-2-carboxylic acid 4-(1,1-difluoro-propyl)-benzylamide]	> 7.00	> 7.00
CCC(F)(F)c1ccc(CNC(=O)[C@H]2CN(C(=O)Cn3nnnc3N)CCN2S(=O)(=O)c2ccc(OC(F)(F)F)cc2)cc1 [Example 1097, (R)-4-[2-(5-amino-tetrazol-1-yl)-acetyl]-1-(4-trifluoromethoxy-benzenesulfonyl)-piperazine-2-carboxylic acid 4-(1,1-difluoro-propyl)-benzylamide]	6.00 to 7.00	6.00 to 7.00
O=C(NCc1ccc(OC(F)(F)F)cc1)[C@H]1CN(c2nc3nc(CCO)ncc3s2)CCN1S(=O)(=O)c1ccc(OC(F)(F)F)cc1 [Example 1098, (R)-4-[5-(2-hydroxy-ethyl)-thiazolo[4,5-d]pyrimidin-2-yl]-1-(4-trifluoromethoxy-benzenesulfonyl)-piperazine-2-carboxylic acid 4-trifluoromethoxy-benzylamide]	> 7.00	> 7.00
O=C(NCc1ccc(OC(F)(F)F)cc1)[C@H]1CN(c2nc3nc(C4CC4)ncc3s2)CCN1S(=O)(=O)c1ccc(C2CC2)cc1 [Example 1099, (R)-1-(4-cyclopropyl-benzenesulfonyl)-4-(5-cyclopropyl-thiazolo [4,5-d]pyrimidin-2-yl)-piperazine-2-carboxylic acid 4-trifluoromethoxy-benzylamide]	> 7.00	> 7.00
O=C(NCc1ccc(OC(F)(F)F)cc1)[C@H]1CN(c2nc3nc(C(F)(F)F)ncc3s2)CCN1S(=O)(=O)c1ccc(C2CC2)cc1 [Example 1100, (R)-4-(5-trifluoromethyl-thiazolo[4,5-d]pyrimidin-2-yl)-1-(4-cyclopropyl-benzenesulfonyl)-piperazine-2-carboxylic acid 4-trifluoromethoxy-benzylamide]	> 7.00	> 7.00
O=C(NCc1ccc(OC(F)(F)F)c(F)c1)[C@H]1CN(c2nc3nc(C4CC4)ncc3s2)CCN1S(=O)(=O)c1ccc(C(F)(F)F)cc1 [Example 1101, (R)-4-(5-cyclopropyl-thiazolo[4,5-d]pyrimidin-2-yl)-1-(4-trifluoromethyl-benzenesulfonyl)-piperazine-2-carboxylic acid 3-fluoro-4-trifluoromethoxy-benzylamide]	> 7.00	> 7.00
O=C(NCc1ccc(OC(F)(F)F)c(F)c1)[C@H]1CN(c2nc3nc(C4CC4)ncc3s2)CCN1S(=O)(=O)c1ccc(OC(F)(F)F)cc1 [Example 1102, (R)-4-(5-cyclopropyl-thiazolo[4,5-d]pyrimidin-2-yl)-1-(4-trifluoromethoxy-benzenesulfonyl)-piperazine-2-carboxylic acid 3-fluoro-4-trifluoromethoxy-benzylamide]	> 7.00	> 7.00
CC(=O)N1CCN(S(=O)(=O)c2ccc(OC(F)(F)F)cc2)[C@@H](C(=O)NCc2ccc(OC(F)(F)F)c(F)c2)C1 [Example 1103, (R)-4-acetyl-1-(4-trifluoromethoxy-benzenesulfonyl)-piperazine-2-carboxylic acid 3-fluoro-4-trifluoromethoxy-benzylamide]	6.00 to 7.00	6.00 to 7.00
O=C(O)c1cncc2sc(N3CCN(S(=O)(=O)c4ccc(OC(F)(F)F)cc4)[C@@H](C(=O)NCc4ccc(OC(F)(F)F)cc4)C3)nc12 [Example 1104, 2-[(R)-4-(4-trifluoromethoxy-benzenesulfonyl)-3-(4-trifluoromethoxy-benzylcarbamoyl)-piperazin-1-yl]-thiazolo[5,4-c]pyridine-7-carboxylic acid]	> 7.00	> 7.00
O=C(NCc1ccc(OC(F)(F)F)cc1)[C@H]1CN(c2nn3c(CO)cc(=O)nc3s2)CCN1S(=O)(=O)c1ccc(OC(F)(F)F)cc1 [Example 1105]	> 7.00	6.00 to 7.00
O=C(O)Cn1ncc2sc(N3CCN(S(=O)(=O)c4ccc(OC(F)(F)F)cc4)[C@@H](C(=O)NCc4ccc(OC(F)(F)F)cc4)C3)nc2c1=O [Example 1106, {4-oxo-2-[(R)-4-(4-trifluoromethoxy-benzenesulfonyl)-3-(4-trifluoromethoxy-benzylcarbamoyl)-piperazin-1-yl]-4H-thiazolo[4,5-d]pyridazin-5-yl}-acetic acid]	> 7.00	> 7.00
